Results taken from US10869476B2 (priority 2015, dated 2020).
Read-outs that look alike come from different tables or passages of the source.

Tests used:
Format in all cases: in vivo
Fusarium = conditions: wheat, 100 EC, 67 days after application
Gibberella zeae = conditions: winter wheat kernels after harvest, Germany 2015; 75 g a.i./ha, 100 EC formulation plus adjuvant, BBCH 65; HPLC-MS/MS; Untreated Control 497
Fusarium head blight = conditions: wheat field trials France and Germany 2016; for Fusarium head blight in % sev. after 11 to 20 days after application: UTC 13; for Fusarium head blight in % sev. after 21 to 46 days after application: UTC 35

CON(C(=O)c1cn(C)nc1C(F)F)C(C)Cc1c(Cl)cc(Cl)cc1Cl (stereo not shown) [Pydiflumetofen, 3-(Difluoromethyl)-N-methoxy-1-methyl-N-[1-(2,4,6-trichlorophenyl)-2-propanyl]-1H-pyrazole-4-carboxamide]
3- Acetyl Deoxynivalenol (Fusarium; France, second trial (UTC 189), 45 g a.i./ha): 63 ppb
3- Acetyl Deoxynivalenol (Fusarium; France, second trial (UTC 189), 60 g a.i./ha): <50 ppb
Nivalenol (Fusarium; Germany, first trial (UTC 126), 45 g a.i./ha): 0 ppb
Nivalenol (Fusarium; Germany, first trial (UTC 126), 60 g a.i./ha): 0 ppb
3- Acetyl Deoxynivalenol (Fusarium; Germany, second trial (UTC 56), 45 g a.i./ha): 0 ppb
3- Acetyl Deoxynivalenol (Fusarium; Germany, second trial (UTC 56), 60 g a.i./ha): 0 ppb
Nivalenol (Fusarium; Germany, second trial (UTC 159), 45 g a.i./ha): 0 ppb
Nivalenol (Fusarium; Germany, second trial (UTC 159), 60 g a.i./ha): 0 ppb
Deoxynivalenol Content (Gibberella zeae): 44 ppm
Fusarium head blight in % sev. after 11 to 20 days after application (Fusarium head blight; 45 g a.i./ha): 42 % sev.
Fusarium head blight in % sev. after 21 to 46 days after application (Fusarium head blight; 45 g a.i./ha): 51 % sev.
Fusarium head blight in % sev. after 11 to 20 days after application (Fusarium head blight; 60 g a.i./ha): 52 % sev.
Fusarium head blight in % sev. after 21 to 46 days after application (Fusarium head blight; 60 g a.i./ha): 64 % sev.
